This note sets out measurements from patent EP0351685A2, “Process for preparing n15-alkyl derivatives of teicoplanin compounds” (GRUPPO LEPETIT S.p.A., priority 1988, dated 1990).

Assay in all cases: In vitro antibacterial activity (MIC), standard agar-dilution test
Assay type in all cases: cell-based

In assay [1] the test system is P. vulgaris X19H ATCC 881. The settings on record: Proteus vulgaris, ATCC881, inoculum about 10⁴ CFU/ml, 18-24 h at 37°C.
In the next assay the test system is E. coli SKF 12140. To be noted: Escherichia coli, SKF12140, inoculum about 10⁴ CFU/ml, 18-24 h at 37°C.
The subject of a further assay is P. aeruginosa ISM. To be noted: Pseudomonas aeruginosa, inoculum about 10⁴ CFU/ml, 18-24 h at 37°C.
The test system of a further assay is S. pneumoniae UC41. The settings on record: Streptococcus pneumoniae, inoculum about 10⁴ CFU/ml, 18-24 h at 37°C. As for the experimental part: (§1) Isosensitest broth (Oxoid) and Todd-Hewitt broth (Difco) are used for growing staphylococci and streptococci, respectively. Broth cultures are diluted so that the final inoculum is about 10⁴ colony forming units/ml (CFU/ml).

Another assay relates to S. pyogenes C203. To be noted: Streptococcus pyogenes, inoculum about 10⁴ CFU/ml, 18-24 h at 37°C. As for the experimental part:
as §1

The next assay deals with S. faecalis ATCC 7080. To be noted: Enterococcus faecalis, ATCC7080, inoculum about 10⁴ CFU/ml, 18-24 h at 37°C. On the procedure:
as §1

Assay [2] has as its system S. epidermidis ATCC 12228. The settings on record: Staphylococcus epidermidis, ATCC12228, inoculum about 10⁴ CFU/ml, 18-24 h at 37°C. As for the experimental part:
as §1

Another assay concerns S. aureus Tour. To be noted: Staphylococcus aureus, inoculum about 10⁴ CFU/ml, 18-24 h at 37°C. As for the experimental part: as §1
The next assay has as its system S. haemolyticus L 602. To be noted: Staphylococcus haemolyticus, L602, inoculum about 10⁴ CFU/ml, 18-24 h at 37°C. As for the experimental part: as §1
[3] abbreviates: S. aureus Tour + 30% bovine serum.

Values after ≈ are worked out from the molar mass of the structure shown. A value given as a limit tells only on which side of the number the result lay.

The MIC is the lowest concentration found to suppress growth. Take `O=C1NC2C(=O)NC3C(=O)NC4C(=O)NC(C(=O)NC(C(=O)O)c5cc(O)cc(O)c5-c5cc4ccc5O)C(O)c4ccc(c(Cl)c4)Oc4cc3cc(c4O)Oc3ccc(cc3Cl)CC1NC(=O)C(NC1CCCC1)c1ccc(O)c(c1)Oc1cc(O)cc2c1` (stereo not shown) [Compound 11]: the MIC was > 128 µg/mL in [1]; > 128 µg/mL against E. coli SKF 12140; > 128 µg/mL in the assay on P. aeruginosa ISM; 0.06 µg/mL (≈ 0.0474 µM) against S. pneumoniae UC41; 0.12 µg/mL (≈ 0.0947 µM) with S. pyogenes C203; 0.25 µg/mL (≈ 0.197 µM) in the assay on S. faecalis ATCC 7080. Also, the MIC is 0.03 µg/mL (≈ 0.0237 µM) in assay [2], 0.5 µg/mL in the assay on S. aureus Tour (setting [3]) and 0.06 µg/mL (≈ 0.0474 µM) against S. aureus Tour (S. aureus Tour).
Turning to `CCNC1C(=O)NC2Cc3ccc(c(Cl)c3)Oc3cc4cc(c3O)Oc3ccc(cc3Cl)C(O)C3NC(=O)C(NC(=O)C4NC(=O)C(NC2=O)c2cc(O)cc(c2)Oc2cc1ccc2O)c1ccc(O)c(c1)-c1c(O)cc(O)cc1C(C(=O)O)NC3=O` (stereo not shown) [Compound 9], the MIC in assay [1] was > 128 µg/mL; in the assay with E. coli SKF 12140, > 128 µg/mL; against P. aeruginosa ISM, > 128 µg/mL; in the assay on S. pneumoniae UC41, 0.12 µg/mL (≈ 0.0978 µM); in the assay with S. pyogenes C203, 0.06 µg/mL (≈ 0.0489 µM); against S. haemolyticus L 602, 0.25 µg/mL (≈ 0.204 µM). Besides, the MIC with S. faecalis ATCC 7080 came to 0.12 µg/mL (≈ 0.0978 µM); in [2] it was 0.03 µg/mL (≈ 0.0245 µM); in the assay on S. aureus Tour (setting [3]) it was 0.25 µg/mL; with S. aureus Tour (S. aureus Tour) it was 0.06 µg/mL (≈ 0.0489 µM).
